The source of these data is patent publication US10227359B2, “Tricyclic heterocycles as bet protein inhibitors” (Incyte Corporation, priority 2014, dated 2019).

In test [1] the test system is C-myc in KMS.12.BM cells. Nature of the test: KMS.12.BM C-myc ELISA Assay. The class given is cell-based. To be noted: Homo sapiens, 2 h. Here is the method: KMS.12.BM C-myc ELISA Assay
KMS.12.BM cell line (human myeloma) was purchased from JCRB (Osaka, Japan) and maintained in RPMI with 10% FBS culture medium. To measure the C-myc inhibitory activity of the compounds, the KMS.12.BM cells are plated in the RPMI culture medium at 75000 cells/well/per 200 μL into a 96-well flat bottom polystyrene tissue culture plate (Corning through VWR, NJ), in the presence or absence of a concentration range of test compounds. After 2 h, cells are pelleted and lysed with Cell Extraction Buffer (BioSource, Carlsbad, Calif.) in the presence of protease inhibitors (Life Technologies, Grand Island, N.Y. and Sigma, St Louis, Mo.). Clarified lyses are tested in a C-myc commercial ELISA (Life Technologies, Grand Island, N.Y.). Compound inhibition is determined relative to cells cultured with no drug and the IC50 reported as the compound concentration required for 50% C-myc inhibition.
A general note: An ELISA detects its analyte on a solid surface through an enzyme-linked reagent.

Test [2] relates to KMS.12.BM cell line (human myeloma). Briefly: KMS.12.BM Cell Viability Assay. The test is classed as cell-based. The following applies: 72 h, KMS.12.BM cells, 3 days, Cell Titer-GLO, read-out: KMS cellular IC50. The procedure:
Example B1: KMS.12.BM Cell Viability Assay
KMS.12.BM cell line (human myeloma) was purchased from JCRB (Osaka, Japan) and maintained in RPMI with 10% FBS culture medium. To measure the cytotoxic activity of the compounds through ATP quantitation, the KMS.12.BM cells are plated in the RPMI culture medium at 5000 cells/well/per 100 μL into a 96-well polystyrene clear black tissue culture plate (Greiner-bio-one through VWR, NJ), in the presence or absence of a concentration range of test compounds. After 3 days, […] Cell Titer-GLO Luminescent (Promega, Madison, Wis.) cell culture agent is added to each well for 10 min. at room temperature to stabilize the luminescent signal. This determines the number of viable cells in culture based on quantitation of the ATP present, which signals the presence of metabolically active cells. Luminescence is measured with the Top Count 384 (Packard Bioscience through Perkin Elmer, Boston, Mass.). Compound inhibition is determined relative to cells cultured with no drug and the IC50 reported as the compound concentration required for 50% cell death.
On the technique in general: ATP-based viability assays read luminescence as a measure of living cells.

pIC50: −log10 of the molar value. A value given as a limit tells only on which side of the number the result lay.

As usually defined, the pIC50 is −log10 of the IC50, conventionally taken in molar units. Turning to `COCC(=O)N1CCN(c2nc3ccc(-c4c(C)noc4C)c4c3n2[C@@H](c2ccccn2)CO4)CC1` [Example 29, (4S)-7-(3,5-dimethylisoxazol-4-yl)-2-[4-(methoxyacetyl)piperazin-1-yl]-4-pyridin-2-yl-4,5-dihydroimidazo[1,5,4-de][1,4]benzoxazine], the pIC50 in test [1] and in test [2] was at least 7.00 throughout.

`Cc1noc(C)c1-c1ccc2nc(N3CCC(N(C)C(=O)N(C)C)CC3)n3c2c1OC[C@@H]3c1ccccn1` [Example 21, N-{1-[(4S)-7-(3,5-dimethylisoxazol-4-yl)-4-pyridin-2-yl-4,5-dihydroimidazo[1,5,4-de][1,4]benzoxazin-2-yl]piperidin-4-yl}-N,N′,N′-trimethylurea]: the pIC50 in test [1] and in test [2] was at least 7.00 throughout.

`Cc1noc(C)c1-c1ccc2nc(N3CCN(C(=O)C4CC4)CC3)n3c2c1OC[C@@H]3c1ccccn1` [Example 27, (4S)-2-[4-(cyclopropylcarbonyl)piperazin-1-yl]-7-(3,5-dimcthylisoxazol-4-yl)-4-pyridin-2-yl-4,5-dihydroimidazo[1,5,4-de][1,4]benzoxazine]: the pIC50 in test [1] and in test [2] was at least 7.00 each time.

With `CC(=O)N1C[C@@H](C)N(c2nc3ccc(-c4c(C)noc4C)c4c3n2[C@@H](c2ccccn2)CO4)[C@@H](C)C1` (atropisomer, axis not shown) [Example 2, (4S)-2-[(2R,6S)-4-Acetyl-2,6-dimethylpiperazin-1-yl]-7-(3,5-dimethylisoxazol-4-yl)-4-pyridin-2-yl-4,5-dihydroimidazo[1,5,4-de][1,4]benzoxazine], the pIC50 in test [1] and in test [2] was at least 7.00 each time.

`Cc1noc(C)c1-c1ccc2nc(N3CCC(N(C)S(=O)(=O)C4CC4)CC3)n3c2c1OC[C@@H]3c1ccccn1` [Example 24, N-{1-[(4S)-7-(3,5-dimethylisoxazol-4-yl)-4-pyridin-2-yl-4,5-dihydroimidazo[1,5,4-de][1,4]benzoxazin-2-yl]piperidin-4-yl}-N-methylcyclopropanesulfonamide]: the pIC50 in test [1] and in test [2] was at least 7.00 throughout.

On to `Cc1noc(C)c1-c1ccc2nc(N3CCN(C(=O)C4CCC4)CC3)n3c2c1OC[C@@H]3c1ccccn1` [Example 28, (4S)-2-[4-(cyclobutylcarbonyl)piperazin-1-yl]-7-(3,5-dimethylisoxazol-4-yl)-4-pyridin-2-yl-4,5-dihydroimidazo[1,5,4-de][1,4]benzoxazine], for which the pIC50 in test [1] was 6.00 to 7.00; in test [2] it was at least 7.00.

On to `Cc1noc(C)c1-c1ccc2nc(N3CCN(C(=O)C(C)C)[C@@H](C)C3)n3c2c1OC[C@@H]3c1ccccn1` [Example 9, (4S)-7-(3,5-dimethylisoxazol-4-yl)-2-[(3S)-4-isobutyryl-3-methylpiperazin-1-yl]-4-pyridin-2-yl-4,5-dihydroimidazo[1,5,4-de][1,4]benzoxazine], for which the negative-log IC50 (pIC50) in test [1] and in test [2] was at least 7.00 each time.

Regarding `Cc1noc(C)c1-c1ccc2nc(N3CCC(NC(=O)C4CCC4)CC3)n3c2c1OC[C@@H]3c1ccccn1` [Example 13, N-{1-[(4S)-7-(3,5-dimethylisoxazol-4-yl)-4-pyridin-2-yl-4,5-dihydroimidazo[1,5,4-de][1,4]benzoxazin-2-yl]piperidin-4-yl}cyclobutanecarboxamide], the pIC50 in test [1] and in test [2] was at least 7.00 throughout.

As for `CCCC(=O)NC1CCN(c2nc3ccc(-c4c(C)noc4C)c4c3n2[C@@H](c2ccccn2)CO4)CC1` [Example 10, N-{1-[(4S)-7-(3,5-dimethylisoxazol-4-yl)-4-pyridin-2-yl-4,5-dihydroimidazo[1,5,4-de][1,4]benzoxazin-2-yl]piperidin-4-yl}butanamide], the pIC50 in test [1] and in test [2] was at least 7.00 each time.

Consider `Cc1noc(C)c1-c1ccc2nc(N3CCN(C(=O)C(C)C)CC3)n3c2c1OC[C@@H]3c1ccccn1` [Example 1, (4S)-7-(3,5-Dimethylisoxazol-4-yl)-2-(4-isobutyrylpiperazin-1-yl)-4-pyridin-2-yl-4,5-dihydroimidazo[1,5,4-de][1,4]benzoxazine], for which the pIC50 in test [1] and in test [2] was at least 7.00 in each case.

With `Cc1noc(C)c1-c1ccc2nc(N3CCN(C(=O)C(C)(C)C)CC3)n3c2c1OC[C@@H]3c1ccccn1` [Example 26, (4S)-7-(3,5-dimethylisoxazol-4-yl)-2-[4-(2,2-dimethylpropanoyl)piperazin-1-yl]-4-pyridin-2-yl-4,5-dihydroimidazo[1,5,4-de][1,4]benzoxazine], the pIC50 in test [1] and in test [2] was at least 7.00 each time.

In the case of `Cc1noc(C)c1-c1ccc2nc(N3CCC(N(C)C(=O)C4CCC4)CC3)n3c2c1OC[C@@H]3c1ccccn1` [Example 20, N-{1-[(4S)-7-(3,5-dimethylisoxazol-4-yl)-4-pyridin-2-yl-4,5-dihydroimidazo[1,5,4-de][1,4]benzoxazin-2-yl]piperidin-4-yl}-N-methylcyclobutanecarboxamide], the pIC50 was 6.00 to 7.00 in test [1] and at least 7.00 in test [2].

Take `CC(=O)N1CCN(c2nc3ccc(-c4c(C)noc4C)c4c3n2[C@@H](c2ccccn2)CO4)C[C@@H]1C` [Example 7, (4S)-2-[(3S)-4-acetyl-3-methylpiperazin-1-yl]-7-(3,5-dimethylisoxazol-4-yl)-4-pyridin-2-yl-4,5-dihydroimidazo[1,5,4-de][1,4]benzoxazine]: the pIC50 in test [1] and in test [2] was at least 7.00 throughout.

On to `Cc1noc(C)c1-c1ccc2nc(N3CCC(N(C)C(=O)C(C)(C)C)CC3)n3c2c1OC[C@@H]3c1ccccn1` [Example 18, N-{1-[(4S)-7-(3,5-dimethylisoxazol-4-yl)-4-pyridin-2-yl-4,5-dihydroimidazo[1,5,4-de][1,4]benzoxazin-2-yl]piperidin-4-yl}-N,2,2-trimethylpropanamide], for which the pIC50 in test [1] and in test [2] was at least 7.00 each time.

With `Cc1noc(C)c1-c1ccc2nc(N3CCC(N(C)S(C)(=O)=O)CC3)n3c2c1OC[C@@H]3c1ccccn1` [Example 22, N-{1-[(4S)-7-(3,5-dimethylisoxazol-4-yl)-4-pyridin-2-yl-4,5-dihydroimidazo[1,5,4-de][1,4]benzoxazin-2-yl]piperidin-4-yl}-N-methylmethanesulfonamide], the pIC50 in test [1] and in test [2] was at least 7.00 each time.

Turning to `Cc1noc(C)c1-c1ccc2nc(N3CCC(NC(=O)C4CC4)CC3)n3c2c1OC[C@@H]3c1ccccn1` [Example 12], the pIC50 in test [1] and in test [2] was at least 7.00 each time.

For the compound `CC(=O)N(C)C1CCN(c2nc3ccc(-c4c(C)noc4C)c4c3n2[C@@H](c2ccccn2)CO4)CC1` [Example 6, N-{1-[(4S)-7-(3,5-dimethylisoxazol-4-yl)-4-pyridin-2-yl-4,5-dihydroimidazo[1,5,4-de][1,4]benzoxazin-2-yl]piperidin-4-yl}-N-methylacetamide], the pIC50 in test [1] and in test [2] was at least 7.00 each time.

Turning to `CCCC(=O)N(C)C1CCN(c2nc3ccc(-c4c(C)noc4C)c4c3n2[C@@H](c2ccccn2)CO4)CC1` [Example 16, N-{1-[(4S)-7-(3,5-dimethylisoxazol-4-yl)-4-pyridin-2-yl-4,5-dihydroimidazo[1,5,4-de][1,4]benzoxazin-2-yl]piperidin-4-yl}-N-methylbutanamide], the pIC50 in test [1] and in test [2] was at least 7.00 each time.

With `CC(=O)NC1(C)CCN(c2nc3ccc(-c4c(C)noc4C)c4c3n2[C@@H](c2ccccn2)CO4)CC1` [Example 5, N-{1-[(4S)-7-(3,5-dimethylisoxazol-4-yl)-4-pyridin-2-yl-4,5-dihydroimidazo[1,5,4-de][1,4]benzoxazin-2-yl]-4-methylpiperidin-4-yl}acetamide], the pIC50 in test [1] and in test [2] was at least 7.00 in each case.
